Test results as given in patent US20090124624A1, “SUBSTITUTED 1-AMINOPHTHALAZINE DERIVATIVES, PREPARATION THEREOF AND THERAPEUTIC APPLICATION THEREOF” (SANOFI-AVENTIS, priority 2005, published 2009).
Structures can show the parent of a compound that is named as a salt.

Tests used:
MCH1 receptor [1] = molecular target: T1, MCH1 receptor (Rattus norvegicus, UniProt P97639); test: Displacement of [125I]-Tyr-S36057 binding to MCH1 receptors, rat brain membrane preparations; details: in rats, brain membranes, read-out: IC50 (concentration that inhibits 50% of the specific binding)
T1 construct: from tissue; host or cells: rat brain membranes
Experimental: (§1) The measurement of the affinity of the compounds of the invention for the MCH receptors was performed by studying the displacement of the binding of a radiolabelled derivative of MCH to the MCH1 receptors. This study was performed on rat and/or mouse brain membrane preparations according to the protocol described below.
(§2) In anticipation of the binding studies, the brains are diluted in HEPES buffer 25 mM (pH: 7.4) containing MgCl2 5 mM, CaCl2 1 mM, homogenized using a Polytron blender for 3 times 20 seconds (speed 25), and are then ultracentrifuged at 22000 rpm and at +4° C. for 30 minutes. The centrifugation pellet is taken up in the same buffer and the membranes are divided into aliquots and stored frozen at −80° C. until the time of use. The membranes are warmed to room temperature and then incubated in the presence of the test compounds, and of […] of an MCH-based radiolabelled molecule, [^125I]-Tyr-S36057 (8-amino-3,6-dioxyoctanoyl MCH 6-17 sold by Perkin-Elmer), in HEPES buffer 25 mM (pH: 7.4) containing MgCl2 5 mM, CaCl2 1 mM, bacitracin 140 mg/L, phenanthroline 1 mM and 0.2% bovine serum albumin. […] The radioactivity retained on the filters is measured using a Gamma scintillation counter. The non-specific binding is determined in the presence of 1 μM of non-radiolabelled S36057. […]

MCH1 receptor [2] = molecular target: T2, MCH1 receptor (Mus musculus, UniProt Q8JZL2); test: Displacement of [125I]-Tyr-S36057 binding to MCH1 receptors, mouse brain membrane preparations; details: in mice, brain membranes, read-out: IC50 (concentration that inhibits 50% of the specific binding)
T2 construct: from tissue; host or cells: mouse brain membranes
Experimental: as §1, §2

T1 sequence (P97639 whole entry): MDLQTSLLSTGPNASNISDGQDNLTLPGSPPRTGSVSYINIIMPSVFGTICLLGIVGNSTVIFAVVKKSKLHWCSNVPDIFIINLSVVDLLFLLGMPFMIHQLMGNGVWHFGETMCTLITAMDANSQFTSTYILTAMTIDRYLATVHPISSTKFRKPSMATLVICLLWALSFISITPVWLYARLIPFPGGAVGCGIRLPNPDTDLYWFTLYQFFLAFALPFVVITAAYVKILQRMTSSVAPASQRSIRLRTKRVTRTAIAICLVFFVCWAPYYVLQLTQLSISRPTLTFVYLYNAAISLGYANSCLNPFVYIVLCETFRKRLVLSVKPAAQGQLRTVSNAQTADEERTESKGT
T2 sequence (Q8JZL2 whole entry): as the sequence (P97639 whole entry) above, with T5A, L24F, P27A, S29P, G34R, T138A counted along it

| IC50 (MCH1 receptor [1]) | IC50 (MCH1 receptor [2]) | SMILES |
| --- | --- | --- |
| 0.5 nM | 0.2 nM | COc1ccc2c(C3CCN(Cc4ccccc4)CC3)nnc(NC3CCN(Cc4ccc5c(c4)OCO5)CC3)c2c1 [Example 1, N-[1-(1,3-Benzodioxol-5-ylmethyl)piperidin-4-yl]-4-(1-benzylpiperidin-4-yl)-7-methoxyphthalazin-1-amine Trihydrochloride] |
| 52 nM | 38 nM | COc1ccc(-c2nnc(NC3CCN(Cc4ccc(OCCCN(C)C)cc4)CC3)c3cc(OC)ccc23)cc1 [Example 3, N-(1-[{4-[3-(Dimethylamino)propoxy]benzyl}piperidin-4-yl)-7-methoxy-4-(4-methoxy-phenyl)phthalazin-1-aminetrihydrochloride] |
